Data from ChEMBL document CHEMBL4354864, “Bicyclic α-Iminophosphonates as High Affinity Imidazoline I2 Receptor Ligands for Alzheimer's Disease” (J Med Chem, 2020).

Columns and labels:
[1] = Displacement of [3H]2-BFI from I2IR in human brain frontal cortex incubated for 45 mins by liquid scintillation spectrometry; format: tissue-based
Nischarin = Nischarin (Homo sapiens, UniProt Q9Y2I1); experiment: Displacement of [3H]clonidine from I1IR in human brain frontal cortex in presence of adrenaline incubated for 45 mins by liquid scintillation spectrometry; format: tissue-based
Homo sapiens [2] = organism: Homo sapiens; experiment: Selectivity index, […] for alpha2-AR human brain frontal cortex […] in human brain frontal cortex
[3] = molecular target: T1, Alpha-2A adrenergic receptor (Homo sapiens, UniProt P08913); experiment: biochemical
T1 sequence (P08913 whole entry): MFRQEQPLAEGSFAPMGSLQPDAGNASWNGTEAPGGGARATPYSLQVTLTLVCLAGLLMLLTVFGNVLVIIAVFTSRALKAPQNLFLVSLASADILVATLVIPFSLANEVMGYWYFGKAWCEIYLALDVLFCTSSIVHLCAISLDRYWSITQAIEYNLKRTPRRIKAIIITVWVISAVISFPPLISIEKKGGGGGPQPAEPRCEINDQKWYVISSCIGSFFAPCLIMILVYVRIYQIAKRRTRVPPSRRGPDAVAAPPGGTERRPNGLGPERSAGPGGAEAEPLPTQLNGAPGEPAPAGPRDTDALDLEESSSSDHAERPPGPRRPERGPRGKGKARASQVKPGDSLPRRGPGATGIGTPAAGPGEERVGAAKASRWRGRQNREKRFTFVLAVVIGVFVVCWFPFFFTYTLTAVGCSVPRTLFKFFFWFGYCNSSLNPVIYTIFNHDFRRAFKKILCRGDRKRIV
Description: Displacement of [3H]RX821002 from alpha2-AR in human brain frontal cortex incubated for 30 mins by liquid scintillation spectrometry

Homo sapiens [4] = organism: Homo sapiens; experiment: Selectivity ratio of Ki for alpha2-AR high binding site in human brain frontal cortex to Ki for I2IR high binding site in human brain frontal cortex
[5] = Displacement of [3H]2-BFI from I2IR in human brain frontal cortex assessed as binding affinity at high affinity site incubated for 45 mins by liquid scintillation spectrometry; format: tissue-based
[6] = Displacement of [3H]2-BFI from I2IR in human brain frontal cortex assessed as binding affinity at low affinity site incubated for 45 mins by liquid scintillation spectrometry; format: tissue-based
Homo sapiens [7] = organism: Homo sapiens; experiment: Displacement of [3H]2-BFI from I2IR in human brain frontal cortex assessed as binding affinity at high affinity site incubated for 45 mins by liquid scintillation spectrometry relative to control; format: tissue-based; set-up: concentration or dose not given beside the values
[8] = Displacement of [3H]2-BFI from I2IR in Wistar rat brain cortex incubated for 90 mins by radioligand binding assay
[9] = Displacement of [3H]2-BFI from I2IR in Sprague-Dawley rat brain cortex assessed as binding affinity at low binding site incubated for 45 mins by liquid scintillation spectrometry
Rattus norvegicus = organism: Rattus norvegicus; experiment: Displacement of [3H]2-BFI from I2IR in Sprague-Dawley rat brain cortex assessed as binding affinity at high binding site incubated for 45 mins by liquid scintillation spectrometry relative to control
[10] = Displacement of [3H]2-BFI from I2IR in Sprague-Dawley rat brain cortex assessed as binding affinity at high binding site incubated for 45 mins by liquid scintillation spectrometry
[11] = Displacement of [3H]2-BFI from I2IR in Sprague-Dawley rat brain cortex incubated for 45 mins by liquid scintillation spectrometry
[12] = Displacement of [3H]2-BFI from I2IR in Swiss mouse brain cortex incubated for 45 mins by liquid scintillation spectrometry

Nischarin, sequence (Q9Y2I1 whole entry): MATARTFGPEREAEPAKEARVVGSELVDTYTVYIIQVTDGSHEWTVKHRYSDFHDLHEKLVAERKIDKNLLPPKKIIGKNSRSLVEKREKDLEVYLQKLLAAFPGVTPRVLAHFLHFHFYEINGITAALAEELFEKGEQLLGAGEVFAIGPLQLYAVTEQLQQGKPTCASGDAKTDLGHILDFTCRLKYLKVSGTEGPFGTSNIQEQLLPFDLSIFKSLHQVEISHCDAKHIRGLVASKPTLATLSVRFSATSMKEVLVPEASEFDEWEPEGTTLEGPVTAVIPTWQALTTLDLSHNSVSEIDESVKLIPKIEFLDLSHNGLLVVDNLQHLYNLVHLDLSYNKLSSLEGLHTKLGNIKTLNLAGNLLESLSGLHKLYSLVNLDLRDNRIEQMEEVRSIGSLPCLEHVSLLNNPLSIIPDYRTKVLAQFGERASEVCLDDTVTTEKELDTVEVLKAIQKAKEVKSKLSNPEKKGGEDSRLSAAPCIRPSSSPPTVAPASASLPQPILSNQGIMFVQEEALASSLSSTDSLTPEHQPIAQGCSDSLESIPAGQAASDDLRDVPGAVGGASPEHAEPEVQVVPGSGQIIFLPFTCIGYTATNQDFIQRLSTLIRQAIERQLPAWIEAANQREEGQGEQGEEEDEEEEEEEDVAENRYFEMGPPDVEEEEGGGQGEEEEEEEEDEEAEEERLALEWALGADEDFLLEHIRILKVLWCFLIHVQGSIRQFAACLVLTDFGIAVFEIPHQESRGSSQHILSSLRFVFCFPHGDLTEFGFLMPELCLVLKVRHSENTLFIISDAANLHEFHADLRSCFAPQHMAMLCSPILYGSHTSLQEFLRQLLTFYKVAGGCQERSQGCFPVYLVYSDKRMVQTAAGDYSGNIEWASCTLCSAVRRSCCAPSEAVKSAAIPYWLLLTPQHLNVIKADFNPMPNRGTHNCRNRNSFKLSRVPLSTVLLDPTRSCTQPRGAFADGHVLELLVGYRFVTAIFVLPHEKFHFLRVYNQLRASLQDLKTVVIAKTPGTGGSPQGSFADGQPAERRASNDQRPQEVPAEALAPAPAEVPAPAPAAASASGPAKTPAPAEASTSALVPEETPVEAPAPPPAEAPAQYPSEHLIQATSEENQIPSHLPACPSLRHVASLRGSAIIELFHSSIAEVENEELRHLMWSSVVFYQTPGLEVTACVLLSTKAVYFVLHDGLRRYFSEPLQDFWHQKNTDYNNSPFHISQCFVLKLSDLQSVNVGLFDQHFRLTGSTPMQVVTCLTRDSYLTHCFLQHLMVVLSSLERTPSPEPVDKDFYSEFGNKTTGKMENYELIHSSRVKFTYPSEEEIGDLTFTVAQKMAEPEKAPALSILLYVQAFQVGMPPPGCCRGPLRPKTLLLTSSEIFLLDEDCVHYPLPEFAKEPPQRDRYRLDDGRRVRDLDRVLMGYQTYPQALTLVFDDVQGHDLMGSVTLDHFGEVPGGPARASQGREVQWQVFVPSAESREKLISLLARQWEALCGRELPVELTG

SMILES	pKi [1]	IC50 (Nischarin)	Ki [3]	further results
CCOP(=O)(OCC)C1(c2ccccc2)N=CC2C(=O)N(c3ccc(Oc4ccccc4)cc3)C(=O)C21 (racemic)	6.96			
CCOP(=O)(OCC)C1(c2ccccc2)N=CC2C(=O)N(Cc3ccccc3)C(=O)C21 (racemic)	5.26	1.35 µM		
CCCN1C(=O)C2C=NC(c3ccccc3)(P(=O)(OCC)OCC)C2C1=O (racemic)	4.02			
CCOP(=O)(OCC)C1N=CC2C(=O)N(C3CCCCC3)C(=O)C21 (racemic)	5.74	7.24 µM	0.000324 µM	Ratio pKi (Homo sapiens [2]): 5
CCOP(=O)(OCC)C1(c2ccccc2)N=CC2C(=O)N(CCc3ccc(F)cc3)C(=O)C21 (racemic)	< 3		2.24 µM	
CCOP(=O)(OCC)C1(c2ccccc2)N=CC2C(=O)N(c3ccccc3Cl)C(=O)C21 (racemic)	5.09		0.708 µM	Ratio Ki (Homo sapiens [4]): 24; pKi [5]: 7.53; pKi [6]: 4.74; Activity (Homo sapiens [7]): 25%
CCOP(=O)(OCC)C1N=CC2C(=O)N(c3ccc(OC)cc3)C(=O)C21 (racemic)	5.11	0.00813 µM	5.37e-05 µM	
CCOP(=O)(OCC)C1(c2ccccc2)N=CC2C(=O)N(c3ccc(OC)cc3)C(=O)C21 (racemic)	6.65	603 µM		
CCOP(=O)(OCC)C1(c2ccc(OC)cc2)N=CC2C(=O)N(c3ccc(F)c(Cl)c3)C(=O)C21 (racemic)	7.87		> 1000 µM	Ratio pKi (Homo sapiens [2]): 74100
C(=C\c1ccccc1)/C1=NCCN1 [TRACIZOLINE]			46.8 µM	Ratio Ki (Homo sapiens [4]): 14100; Ki [5]: 0.0033 µM; pKi [5]: 8.48; pKi [6]: 6.48; Activity (Homo sapiens [7]): 38%
CCOP(=O)(OCC)C1(c2ccccc2)N=CC2C(=O)N(C3Cc4ccccc4C3)C(=O)C21 (racemic)	3.84		363 µM	Ratio Ki (Homo sapiens [4]): 2690; pKi [5]: 6.87; pKi [6]: 3.2; Ratio pKi (Homo sapiens [2]): 2; Activity (Homo sapiens [7]): 22%
CCOP(=O)(OCC)C1(c2ccccc2)N=CC2C(=O)N(c3cc([N+](=O)[O-])ccc3C)C(=O)C21 (racemic)	< 3			
c1ccc(-c2ncc3cc(-n4ccnc4)ccc3n2)cc1			2240 µM	Ratio Ki (Homo sapiens [4]): 117000; pKi [5]: 7.72; pKi [6]: 5.45; Activity (Homo sapiens [7]): 29%; IC50 [8]: 0.596 µM; Ki [8]: 0.019 µM
CCOP(=O)(OCC)C1(c2ccccc2)N=CC2C(=O)N(c3cccc([N+](=O)[O-])c3)C(=O)C21 (racemic)	6.81	5.5 µM		
CCOP(=O)(OCC)C1(c2ccccc2)N=CC2C(=O)N(c3cccc4ccccc34)C(=O)C21 (racemic)	3.11		> 1000 µM	
CCOP(=O)(OCC)C1(c2ccccc2)N=CC2C(=O)N(c3ccc(C)cc3)C(=O)C21 (racemic)	5.44			
CCOP(=O)(OCC)C1(c2ccc(F)cc2)N=CC2C(=O)N(c3ccccc3)C(=O)C21 (racemic)	< 3		0.17 µM	
CCOP(=O)(OCC)C1(c2ccccc2)N=CC2C(=O)N(c3ccc(Br)cc3)C(=O)C21 (racemic)	< 3			
CCOP(=O)(OCC)C1(c2ccc(F)cc2)N=CC2C(=O)N(c3ccc(F)c(Cl)c3)C(=O)C21 (racemic)	7.55		417 µM	Ratio pKi (Homo sapiens [2]): 14800
CCOP(=O)(OCC)C1N=CC2C(=O)N(C)C(=O)C21 (racemic)	6.79	7.41 µM	0.00447 µM	
CCOP(=O)(OCC)C1N=CC2C(=O)N(c3ccc(F)c(Cl)c3)C(=O)C21 (racemic)	< 3	> 1000 µM	0.00324 µM	
Cn1c(C2=NCCN2)cc2ccccc21				Ki [9]: 0.239 µM; pKi [5]: 6.89; pKi [6]: 3.82; inhibition (Rattus norvegicus): 58%; Ki [10]: 0.0014 µM; Activity (Homo sapiens [7]): 51%
CCOP(=O)(OCC)C1(c2ccccc2)N=CC2C(=O)N(c3ccc(F)cc3)C(=O)C21 (racemic)	< 3		4.57 µM	
CCOP(=O)(OCC)C1(c2ccccc2)N=CC2C(=O)N(C)C(=O)C21 (racemic)	7.97	0.646 µM	1.17 µM	Ratio pKi (Homo sapiens [2]): 110

SMILES	pKi [1]	IC50 (Nischarin)	Ki [3]	further results
c1ccc2c(c1)OCC(C1=NCCN1)O2 (stereo not given) [IDAZOXAN]				pKi [11]: 7.17; pKi [5]: 7.74; pKi [12]: 5.68
CCOP(=O)(OCC)C1(c2ccccc2)N=CC2C(=O)N(c3ccc(Cl)cc3)C(=O)C21 (racemic)	< 3			
CCOP(=O)(OCC)C1(c2ccccc2)N=CC2C(=O)N(CC)C(=O)C21 (racemic)	8.37		1.41 µM	Ratio Ki (Homo sapiens [4]): 1260; pKi [5]: 8.95; pKi [6]: 5.86; Ratio pKi (Homo sapiens [2]): 331; Activity (Homo sapiens [7]): 62%
CCOP(=O)(OCC)C1(c2ccccc2)N=CC2C(=O)N(c3cccnc3Cl)C(=O)C21 (racemic)	7.96		> 1000 µM	Ratio pKi (Homo sapiens [2]): 91200
c1ccc2oc(-c3ncc[nH]3)cc2c1			6.76 µM	Ratio Ki (Homo sapiens [4]): 7240; pKi [5]: 9.03; pKi [6]: 5.25; Activity (Homo sapiens [7]): 49%
CCOP(=O)(OCC)C1(Cc2ccccc2)N=CC2C(=O)N(c3ccccc3)C(=O)C21 (racemic)	6.59	7.59 µM	115 µM	Ratio pKi (Homo sapiens [2]): 447
CCOP(=O)(OCC)C1(Cc2ccc(F)cc2)N=CC2C(=O)N(c3ccccc3)C(=O)C21 (racemic)	5.35		0.0631 µM	
CCOP(=O)(OCC)C1(c2ccccc2)N=CC2C(=O)N(c3cccc(C(F)(F)F)c3)C(=O)C21 (racemic)	< 3			
CCOP(=O)(OCC)C1(c2ccccc2)N=CC2C(=O)N(CCc3ccccc3)C(=O)C21 (racemic)	6.35	0.0105 µM	170 µM	Ratio pKi (Homo sapiens [2]): 380
CCOP(=O)(OCC)C1N=CC2C(=O)N(c3ccccc3)C(=O)C21 (racemic)	7.73	3.39 µM	9.55 µM	
CCOP(=O)(OCC)C1(c2ccccc2)N=CC2C(=O)N(c3cc(Cl)cc(Cl)c3)C(=O)C21 (racemic)	5.81		0.603 µM	
CCOP(=O)(OCC)C1(c2ccccc2)N=CC2C(=O)N(CC34CC5CC(CC(C5)C3)C4)C(=O)C21 (racemic)	7.01		49 µM	Ratio pKi (Homo sapiens [2]): 501
CCOP(=O)(OCC)C1(c2ccccc2)N=CC2C(=O)N(c3ccc(-c4ccccc4)cc3)C(=O)C21 (racemic)	7.9	0.0646 µM		
CCOP(=O)(OCC)C1(c2ccccc2)N=CC2C(=O)N(c3c(Cl)cc(Cl)cc3Cl)C(=O)C21 (racemic)	< 3		6.92 µM	
CCOP(=O)(OCC)C1(c2ccccc2)N=CC2C(=O)N(c3ccc(Cl)c(Cl)c3)C(=O)C21 (racemic)	< 3			
CCOP(=O)(OCC)C1(c2ccccc2)N=CC2C(=O)N(c3ccc(C(F)(F)F)cc3)C(=O)C21 (racemic)	< 3		18.6 µM	
CCOP(=O)(OCC)C1(c2ccccc2)N=CC2C(=O)N(C3CCCCC3)C(=O)C21 (racemic)		0.0288 µM		
CCOP(=O)(OCC)C1(c2ccccc2)N=CC2C(=O)N(c3ccccc3)C(=O)C21 (racemic)	10.28	0.182 µM		
CCOP(=O)(OCC)C1(c2ccccc2)N=CC2C(=O)N(C(C)(C)C)C(=O)C21 (racemic)	7.35		0.17 µM	Ratio pKi (Homo sapiens [2]): 3
COc1nc(C)nc(Cl)c1N=C1NCCN1 [MOXONIDINE]		0.00355 µM		
CCOP(=O)(OCC)C1(c2ccccc2)N=CC2C(=O)N(c3cccc(Cl)c3)C(=O)C21 (racemic)	< 3			
CCOP(=O)(OCC)C1(c2ccc(OC)cc2)N=CC2C(=O)N(c3ccccc3)C(=O)C21 (racemic)	3.39		141 µM	
c1ccc2oc(C3=NCCN3)cc2c1			0.229 µM	Ratio Ki (Homo sapiens [4]): 1700; Ki [5]: 0.00013 µM; pKi [5]: 9.87; pKi [6]: 7.94; Activity (Homo sapiens [7]): 21%
